Drawing on PubChem BioAssay AID192 (DTP/NCI, 2004), this text covers T/C for 18 molecules.

In the assay the test system is BDF1 mice, B16 melanoma ip, median survival T/C. Nature of the assay: NCI In Vivo Anticancer Drug Screen. Data for tumor model B16 Melanoma (intraperitoneal) in B6D2F1 (BDF1) mice. The note with it: endpoint: median survival time, higher = longer survival. In outline:
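Tumor-bearing mice received test compound or vehicle. Survival or tumor size was then measured in both groups. The treated-group figure was divided by the control-group figure.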

Setting [1] is: dose: 6.25 mg/kg/injection, schedule: Q01DX009 (ip), vehicle: saline with Tween-80.
Where [2] appears, read: dose: 12.5 mg/kg/injection, schedule: Q01DX009 (ip), vehicle: saline with Tween-80.
Where [3] appears, read: dose: 25.0 mg/kg/injection, schedule: Q01DX009 (ip), vehicle: saline with Tween-80.
The mark [4] stands for this setting: dose: 50.0 mg/kg/injection, schedule: Q01DX009 (ip), vehicle: saline with Tween-80.
Setting [5] is: dose: 12.5 mg/kg/injection, schedule: Q01DX009 (ip), vehicle: Klucel (hydroxypropylcellulose) (HPC).
Setting [6] is: dose: 25.0 mg/kg/injection, schedule: Q01DX009 (ip), vehicle: Klucel (hydroxypropylcellulose) (HPC).
[7] abbreviates: dose: 50.0 mg/kg/injection, schedule: Q01DX009 (ip), vehicle: Klucel (hydroxypropylcellulose) (HPC).
[8] abbreviates: dose: 100.0 mg/kg/injection, schedule: Q01DX009 (ip), vehicle: Klucel (hydroxypropylcellulose) (HPC).
Setting [9] is: dose: 6.25 mg/kg/injection, schedule: Q01DX009 (ip), vehicle: saline.
[10] abbreviates: dose: 12.5 mg/kg/injection, schedule: Q01DX009 (ip), vehicle: saline.
[11] abbreviates: dose: 25.0 mg/kg/injection, schedule: Q01DX009 (ip), vehicle: saline.
[12] abbreviates: dose: 6.25 mg/kg/injection, schedule: Q01DX009 (ip), vehicle: Klucel (hydroxypropylcellulose) (HPC).
The mark [13] stands for this setting: dose: 3.13 mg/kg/injection, schedule: Q01DX009 (ip), vehicle: saline with Tween-80.
[14] abbreviates: dose: 25.0 mg/kg/injection, schedule: Q04DX003 (ip), vehicle: saline with Tween-80.
[15] abbreviates: dose: 50.0 mg/kg/injection, schedule: Q04DX003 (ip), vehicle: saline with Tween-80.
Where [16] appears, read: dose: 100.0 mg/kg/injection, schedule: Q04DX003 (ip), vehicle: saline with Tween-80.
Where [17] appears, read: dose: 200.0 mg/kg/injection, schedule: Q01DX009 (ip), vehicle: Klucel (hydroxypropylcellulose) (HPC).

Molecules are shown by their SMILES. Several values for one entry are separate records, joined by “and”; a condition that tells them apart may be missing. Identical values can stand only once. Toxic doses and inconclusive results are not listed.

As for `O=C(N/N=C\c1cc(Br)cc(Br)c1O)N/N=C/c1cc(Br)cc(Br)c1O`, the T/C under setting [1] was 108 % of control and 120 % of control; the T/C (dose: 6.25 mg/kg/injection, schedule: Q01DX009 (ip), vehicle: sodium bicarbonate) is 96 % of control; the T/C under setting [2] is 104 % of control; the T/C (dose: 12.5 mg/kg/injection, schedule: Q01DX009 (ip), vehicle: sodium bicarbonate) is 107 % of control; the T/C (dose: 25.0 mg/kg/injection, schedule: Q01DX009 (ip), vehicle: sodium bicarbonate) is 107 % of control; the T/C (dose: 50.0 mg/kg/injection, schedule: Q01DX009 (ip), vehicle: sodium bicarbonate) is 107 % of control. Moreover, the T/C was 118 % of control (dose: 100.0 mg/kg/injection, schedule: Q01DX009 (ip), vehicle: sodium bicarbonate) and 122 % of control (dose: 200.0 mg/kg/injection, schedule: Q01DX009 (ip), vehicle: sodium bicarbonate).

For the molecule `NC(N)=Nc1ccc(C(=O)Oc2ccc([N+](=O)[O-])cc2Cl)cc1`, the T/C is 97 % of control under setting [2], 101 % of control under setting [3] and 93 % of control under setting [4].

On to `O=C1C=C[C@H](O)[C@@]2(CO)O[C@@H]12`, for which the T/C runs as follows: (dose: 1.25 mg/kg/injection, schedule: Q01DX009 (ip), vehicle: saline with Tween-80) 101 % of control; (dose: 2.5 mg/kg/injection, schedule: Q01DX009 (ip), vehicle: saline with Tween-80) 101 % of control; (dose: 5.0 mg/kg/injection, schedule: Q01DX009 (ip), vehicle: saline with Tween-80) 122 % of control; (dose: 10.0 mg/kg/injection, schedule: Q01DX009 (ip), vehicle: saline with Tween-80) 104 % of control.

With `Cc1noc(/N=C/c2ccccc2)c1C`, the T/C was 108 % of control (dose: 100.0 mg/kg/injection, schedule: Q04DX003 (ip), vehicle: Klucel (hydroxypropylcellulose) (HPC)); 105 % of control (dose: 200.0 mg/kg/injection, schedule: Q04DX003 (ip), vehicle: Klucel (hydroxypropylcellulose) (HPC)); 108 % of control (dose: 400.0 mg/kg/injection, schedule: Q04DX003 (ip), vehicle: Klucel (hydroxypropylcellulose) (HPC)).

`N#CCCN(C(=O)COc1ccc(Cl)cc1Cl)C1CCCCC1`: the T/C by setting is: under setting [5], 99 % of control; under setting [6], 103 % of control; under setting [7], 98 % of control.

Take `Cc1ccc(CNc2ccc(Cl)cc2)cc1`: the T/C is, setting by setting: under setting [7], 91 % of control; under setting [8], 94 % of control.

As to `CCC(=O)OCC(=O)[C@]1(O)Cc2c(O)c3c(c(O)c2[C@@H](OC2CC(N)C(O)C(C)O2)C1)C(=O)c1c(OC)cccc1C3=O` (stereo partly specified), the T/C runs as follows: (dose: 0.25 mg/kg/injection, schedule: Q01DX009 (ip), vehicle: saline) 188 % of control; (dose: 0.5 mg/kg/injection, schedule: Q01DX009 (ip), vehicle: saline) 175 % of control; (dose: 1.0 mg/kg/injection, schedule: Q01DX009 (ip), vehicle: saline) 169 % of control and 195 % of control; (dose: 2.0 mg/kg/injection, schedule: Q01DX009 (ip), vehicle: saline) 177 % of control and 260 % of control.

For the molecule `N#CC1CCCC[N-]1.[NH-]CC[N-]CC[NH-].[Pt+4]` (stereo unspecified), the T/C runs as follows: under setting [9], 113 % of control; under setting [10], 108 % of control; under setting [11], 91 % of control.

As for `CCC(CC)CC1CN2CCc3cc(OC)c(OC)cc3C2CC1(O)CC` (stereo unspecified), the T/C (dose: 3.12 mg/kg/injection, schedule: Q01DX009 (ip), vehicle: Klucel (hydroxypropylcellulose) (HPC)) was 102 % of control; the T/C under setting [12] was 102 % of control; the T/C under setting [5] was 102 % of control; the T/C under setting [6] was 106 % of control.

Consider `NCCN.[Ni+2].[O-]c1ccccc1[O-].[O-]c1ccccc1[O-]`, for which the T/C (dose: 1.56 mg/kg/injection, schedule: Q01DX009 (ip), vehicle: saline with Tween-80) was 100 % of control; the T/C under setting [13] was 97 % of control; the T/C under setting [1] is 87 % of control; the T/C under setting [2] is 87 % of control.

As for `O=C(O)C1C2CCC1C2` (stereo unspecified), the T/C is, setting by setting: under setting [14], 103 % of control; under setting [15], 102 % of control; under setting [16], 97 % of control and 102 % of control.

With `C/C=C/C(=O)NCC(C(C)C)/[N+]([O-])=N/O` (stereo unspecified), the T/C reads like this: under setting [9], 100 % of control; under setting [10], 104 % of control; under setting [11], 100 % of control.

With `O=C(Nc1ccccc1F)c1cccc(C(=O)Nc2ccccc2F)c1`, the T/C is 101 % of control under setting [7], 108 % of control under setting [8] and 96 % of control under setting [17].

For `CCCCCCCCCCCCCCCC(=O)N(CCCN(CC)CC)C(C)CCCN(CC)CC` (stereo unspecified), the T/C is, setting by setting: (dose: 0.78 mg/kg/injection, schedule: Q01DX009 (ip), vehicle: water) 103 % of control; (dose: 1.56 mg/kg/injection, schedule: Q01DX009 (ip), vehicle: Klucel (hydroxypropylcellulose) (HPC)) 110 % of control; (dose: 1.56 mg/kg/injection, schedule: Q01DX009 (ip), vehicle: water) 104 % of control; (dose: 3.13 mg/kg/injection, schedule: Q01DX009 (ip), vehicle: Klucel (hydroxypropylcellulose) (HPC)) 102 % of control; (dose: 3.13 mg/kg/injection, schedule: Q01DX009 (ip), vehicle: water) 104 % of control; under setting [12], 86 % of control and 97 % of control. The T/C (dose: 6.25 mg/kg/injection, schedule: Q01DX009 (ip), vehicle: water) is 90 % of control.

Consider `COc1ccc(OCC(O)CN2CCN(c3ccc(Cl)cc3)CC2)cc1` (stereo unspecified), for which the T/C under setting [12] was 97 % of control; the T/C under setting [5] is 105 % of control; the T/C under setting [6] was 104 % of control; the T/C under setting [7] was 111 % of control; the T/C under setting [8] was 108 % of control; the T/C under setting [17] was 105 % of control.

Consider `CC1(C)OC2OC(COC(=O)c3ccccc3)C(=O)C2O1` (stereo unspecified), for which the T/C is 94 % of control under setting [3]; 97 % of control under setting [4]; 93 % of control (dose: 100.0 mg/kg/injection, schedule: Q01DX009 (ip), vehicle: saline with Tween-80); 88 % of control (dose: 400.0 mg/kg/injection, schedule: Q01DX009 (ip), vehicle: saline with Tween-80).

As to `CC(C)(C)OC(=O)N1CCCC1C(=O)Oc1ccc([N+](=O)[O-])cc1` (stereo unspecified), the T/C is 94 % of control under setting [14], 109 % of control under setting [15] and 104 % of control under setting [16].

As for `COC(=O)c1cc2cc3c(c(O)c2c(=O)o1)OC1(Cc2c(O)c4c(c(O)c2O1)C(=O)C(OC)CC4=O)CC3O` (stereo unspecified), the T/C runs as follows: under setting [13], 91 % of control; under setting [1], 91 % of control and 93 % of control; under setting [2], 86 % of control; under setting [3], 86 % of control and 88 % of control.
